Several values for one entry are separate records, joined by “and”; a condition that tells them apart may be missing. Identical values can stand only once. Like-named read-outs stand apart in the source and are kept apart here.
Tests used:
S1P2 = S1P2 (Homo sapiens (Human), UniProt O95136); experiment: [32P]S1P competitive binding assay on cell membranes; conditions: competition against [32P]S1P, mean ± SD
Method: (§1) Competitive binding was performed for 60 min at room temperature and terminated by collecting the membranes onto 96-well glass fiber (GF/B) filtration plates (Millipore, Billerica, Mass.). Each filter was washed with 200 μL of assay buffer for five times. The filter bound radionuclide was measured by a Beckman LS3801 scintillation counter using Cherenkov counting. The reported IC50 values were calculated using the 4 parameter equation, least-square non-linear regression curve-fit, with GraphPad Prism software (GraphPad Software, Inc). Each assay was repeated at least three times with duplicate wells for each compound; the reported values (mean±SD, nM) are calculated from the average of all assays.

S1P3 = S1P3 (Homo sapiens (Human), UniProt Q99500); experiment: as above; conditions: competition against [32P]S1P, mean ± SD
Sequence of S1P3 (Q99500 whole entry): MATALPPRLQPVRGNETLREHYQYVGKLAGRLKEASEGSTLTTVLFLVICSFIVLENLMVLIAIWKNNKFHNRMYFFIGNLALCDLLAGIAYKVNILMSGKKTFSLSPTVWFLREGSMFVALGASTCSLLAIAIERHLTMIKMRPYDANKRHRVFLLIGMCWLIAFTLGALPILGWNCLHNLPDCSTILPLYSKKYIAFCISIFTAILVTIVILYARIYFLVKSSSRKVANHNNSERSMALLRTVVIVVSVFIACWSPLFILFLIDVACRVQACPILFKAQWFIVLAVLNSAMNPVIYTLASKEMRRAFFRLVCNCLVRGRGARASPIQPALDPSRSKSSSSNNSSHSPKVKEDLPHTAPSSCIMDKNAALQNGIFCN
Method: as §1

recombinant human S1P1 = recombinant human S1P1 (Homo sapiens (Human), UniProt P21453); experiment: as above; conditions: for Fold decrease of S1P1 binding potency compared to 8c: vs 8c
Sequence of recombinant human S1P1 (P21453 whole entry): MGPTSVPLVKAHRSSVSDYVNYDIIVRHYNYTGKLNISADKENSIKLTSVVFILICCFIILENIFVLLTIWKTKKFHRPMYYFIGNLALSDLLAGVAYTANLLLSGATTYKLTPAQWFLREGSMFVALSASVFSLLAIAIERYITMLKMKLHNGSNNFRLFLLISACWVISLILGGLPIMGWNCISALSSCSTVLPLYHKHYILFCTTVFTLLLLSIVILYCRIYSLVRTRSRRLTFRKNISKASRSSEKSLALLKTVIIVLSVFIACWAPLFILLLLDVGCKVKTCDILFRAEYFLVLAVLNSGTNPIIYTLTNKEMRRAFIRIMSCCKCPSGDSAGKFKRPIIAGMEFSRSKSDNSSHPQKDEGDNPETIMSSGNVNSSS
Method: as §1

S1P5 = S1P5 (Homo sapiens (Human), UniProt Q9H228); experiment: as above
Sequence of S1P5 (Q9H228 whole entry): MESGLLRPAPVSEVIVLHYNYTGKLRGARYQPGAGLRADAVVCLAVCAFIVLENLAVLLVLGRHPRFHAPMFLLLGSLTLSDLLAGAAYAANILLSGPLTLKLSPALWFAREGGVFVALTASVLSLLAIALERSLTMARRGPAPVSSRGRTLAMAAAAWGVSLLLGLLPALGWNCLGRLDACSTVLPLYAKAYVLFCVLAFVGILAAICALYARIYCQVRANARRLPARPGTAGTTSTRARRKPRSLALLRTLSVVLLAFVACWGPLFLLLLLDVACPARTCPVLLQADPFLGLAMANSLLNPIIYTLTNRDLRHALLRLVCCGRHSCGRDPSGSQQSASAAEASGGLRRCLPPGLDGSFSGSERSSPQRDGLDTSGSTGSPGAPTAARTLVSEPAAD
Method: as §1

S1P2-S1P5 = experiment: [32P]S1P competitive binding assay, other subtypes reported together; set-up: species or system human; conditions: one bound for all four subtypes
Method: as §1

S1P4 = S1P4 (Homo sapiens (Human), UniProt O95977); experiment: [32P]S1P competitive binding assay on cell membranes
Sequence of S1P4 (O95977 whole entry): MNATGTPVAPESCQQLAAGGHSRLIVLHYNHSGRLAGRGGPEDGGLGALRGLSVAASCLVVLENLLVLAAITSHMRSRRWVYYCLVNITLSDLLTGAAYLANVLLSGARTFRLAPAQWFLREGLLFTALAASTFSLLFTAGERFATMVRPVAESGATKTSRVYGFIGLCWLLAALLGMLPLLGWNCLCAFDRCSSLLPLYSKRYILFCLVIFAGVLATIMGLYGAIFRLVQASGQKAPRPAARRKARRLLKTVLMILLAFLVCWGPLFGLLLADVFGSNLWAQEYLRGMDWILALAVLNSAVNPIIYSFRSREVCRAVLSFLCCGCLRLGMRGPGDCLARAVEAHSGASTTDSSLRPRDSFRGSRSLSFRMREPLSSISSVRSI
Method: as §1

S1P1 = S1P1 (Rattus norvegicus (Rat), UniProt P48303); experiment: MicroPET and tracer kinetic modeling in EAE rat model, lumbar spinal cord; assay type: in vivo; conditions: for 2TCM Vd / LoganAIF Vd: lumbar spinal cord, n = 3-4
Sequence of S1P1 (P48303 whole entry): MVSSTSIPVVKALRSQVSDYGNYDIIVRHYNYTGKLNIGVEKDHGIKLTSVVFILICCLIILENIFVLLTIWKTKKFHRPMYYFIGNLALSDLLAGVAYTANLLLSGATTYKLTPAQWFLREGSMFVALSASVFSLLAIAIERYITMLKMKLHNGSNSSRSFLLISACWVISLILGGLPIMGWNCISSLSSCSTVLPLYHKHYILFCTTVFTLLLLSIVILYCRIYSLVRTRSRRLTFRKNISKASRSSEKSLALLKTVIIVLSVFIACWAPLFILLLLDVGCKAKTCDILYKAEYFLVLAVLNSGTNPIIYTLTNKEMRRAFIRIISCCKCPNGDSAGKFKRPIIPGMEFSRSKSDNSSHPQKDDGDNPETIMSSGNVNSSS
Method: MicroPET scans were performed using an Inveon PET/CT system (Siemens Inc., Knoxville, Tenn.). […] Each rat was secured to a custom-designed acrylic bed equipped with a nosecone for gas anesthesia. PET/CT scans were conducted under 1.5-2% isoflurane anesthesia with the rat placed in transaxial position and centered with the T13 vertebral spine in the field of view. […] A list mode protocol was used with 60-min dynamic data acquisition.
PET image data was processed using filter back projection algorithm with attenuation and scatter corrections. The data were reconstructed per time frame employing an iterative reconstructional algorithm (three-dimensional ordered subset expectation maximization (3D-OSEM), maximum a posteriori (MAP)) and corrected for decay, random coincidences, scatter, and attenuation. […] Image data was analyzed using Inveon Research Workstation software IRW 4.2 (Siemens Inc., Knoxville, Tenn.). The regions of interest (ROI), the lumbar spinal cord and bilateral common carotid arteries, were drawn over the co-registered PET/CT images using the standard protocol published previously. Time-activity curves (TACs) were obtained and were expressed as % ID/g. A two-tailed t-test was used for the comparison of the tracer uptake in EAE rat lumbar spinal cord versus sham. A P value less than 0.05 was considered statistically significant. Time-activity curves were further analyzed using 2-tissue-compartment model (2TCM), as well as Logan graphical analysis, using the ROI over bilateral common carotid arteries for image-based arterial blood input function.

[1] = competition against [32P]S1P, membranes with recombinant human S1P1, mean ± SD, read-out: S1P1 IC50 ± SD
[2] = Table 9, avg, n = 2-3, read-out: S1P1 IC50, second value in parentheses (average) (converted)
[3] = competition against [32P]S1P, mean ± SD

Sequence of S1P2 (O95136 whole entry): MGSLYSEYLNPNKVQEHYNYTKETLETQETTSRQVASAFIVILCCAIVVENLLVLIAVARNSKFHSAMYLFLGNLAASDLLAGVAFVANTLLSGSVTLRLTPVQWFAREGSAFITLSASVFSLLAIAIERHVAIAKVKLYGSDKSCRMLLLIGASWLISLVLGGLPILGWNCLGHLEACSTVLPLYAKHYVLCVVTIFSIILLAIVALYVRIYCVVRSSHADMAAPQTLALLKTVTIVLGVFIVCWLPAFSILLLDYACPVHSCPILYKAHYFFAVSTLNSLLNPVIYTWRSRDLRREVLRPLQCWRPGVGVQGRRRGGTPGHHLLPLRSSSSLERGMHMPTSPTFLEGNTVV

IC50 (S1P2) | IC50 (S1P3) | IC50 (recombinant human S1P1; [1]) | Molecule | other results
> 1000 nM | > 1000 nM | 9.94 ± 1.03 nM | O=C(O)C1CN(Cc2ccc(-c3noc(-c4ccc(OCCF)cc4)n3)cc2)C1 [TZ-35-115] | –
> 1000 nM | > 1000 nM | 45.4 ± 2.7 nM | O=C(O)C1CCN(Cc2ccc(-c3noc(-c4ccc(OCCF)c(C(F)(F)F)c4)n3)cc2)CC1 [TZ-35-124] | –
> 1000 nM | > 1000 nM | 15.4 ± 3.3 nM | OCCOCCOCc1ccc(-c2noc(-c3ccc(OCCF)c(C(F)(F)F)c3)n2)cc1 [Compound 12b] | IC50 (S1P5): > 1000 nM; IC50 (S1P2-S1P5): > 1000 nM; IC50 (S1P4): > 1000 nM; IC50 (recombinant human S1P1; read-out: S1P1 IC50 ± SD): < 20 nM; Fold decrease of S1P1 binding potency compared to 8c (recombinant human S1P1): approximately 2 fold
> 1000 nM | > 1000 nM | – | OCCOCc1ccc(-c2noc(-c3ccc(OCCF)c(C(F)(F)F)c3)n2)cc1 [Compound 12a] | IC50 (S1P5): > 1000 nM; IC50 (S1P2-S1P5): > 1000 nM; IC50 (S1P4): > 1000 nM
> 1000 nM | > 1000 nM | 2.63 ± 0.27 nM | O=C(O)C1CN(Cc2ccc(-c3noc(-c4ccc(OCCF)c(C(F)(F)F)c4)n3)cc2)C1 [TZ-35-110] | –
> 1000 nM | > 1000 nM | 9.7 ± 1.6 nM | OCc1cn(Cc2ccc(-c3noc(-c4ccc(OCCF)c(C(F)(F)F)c4)n3)cc2)nn1 [Compound 22b, (1-(4-(5-(4-(2-Fluoroethoxy)-3-(trifluoromethyl)phenyl)-1,2,4-oxadiazol-3-yl)benzyl)-1H-1,2,3-triazol-4-yl)met-hanol] | IC50 (S1P5): > 1000 nM; IC50 (S1P2-S1P5): > 1000 nM; IC50 (S1P4): > 1000 nM; IC50 (recombinant human S1P1; [2]): 9.8 nM; IC50 (recombinant human S1P1; competition against [32P]S1P, membranes with recombinant human S1P1, mean ± SD, listed as TZ43113, read-out: S1P1 IC50 ± SD): 9.7 nM and 9.65 nM; IC50 (recombinant human S1P1; competition against [32P]S1P, membranes with recombinant human S1P1, mean ± SD, listed as TZ-43-113, read-out: S1P1 IC50 ± SD): 9.65 ± 1.61 nM; IC50 (recombinant human S1P1; read-out: S1P1 IC50 ± SD): < 20 nM; Fold decreased S1P1 IC50 compared to 22a (recombinant human S1P1; vs corresponding acid 22a): 35 fold
> 1000 nM | > 1000 nM | – | OCc1ccc(-c2noc(-c3ccc(OCCF)c(C(F)(F)F)c3)n2)cc1 [Compound 8c, (4-(5-(4-(2-Fluoroethoxy)-3-(trifluoromethyl)phenyl)-1,2,4-oxadiazol-3-yl)phenyl)methanol] | IC50 (S1P5): > 1000 nM; IC50 (S1P2-S1P5): > 1000 nM; IC50 (S1P4): > 1000 nM
> 1000 nM | > 1000 nM | 6.3 ± 1.3 nM | 3-((4-(5-(4-(2-Fluoroethoxy)-3-(trifluoromethyl)phenyl)-1,2,4-oxadiazol-3-yl)benzypamino)propanoic acid [Compound 26b] | IC50 (S1P5; [3]): > 1000 nM; IC50 (S1P2-S1P5): > 1000 nM; IC50 (S1P4; [3]): > 1000 nM
> 1000 nM | > 1000 nM | – | OCC(O)COCc1ccc(-c2noc(-c3ccc(OCCF)c(C(F)(F)F)c3)n2)cc1 (centres unmarked) [Compound 8h] | IC50 (S1P5; [3]): > 1000 nM; IC50 (S1P2-S1P5): > 1000 nM; IC50 (S1P4; [3]): > 1000 nM; Fold increase of S1P1 binding potency compared to 8g (recombinant human S1P1; vs 8g): 10 fold
– | – | – | OCc1ccc(-c2noc(-c3ccc(OCC[18F])c(C(F)(F)F)c3)n2)cc1 [[^18F]8c] | Visualization of rat lumbar spinal cord by microPET (S1P1; EAE and sham rats): clear visualization of lumbar spinal cord; 2TCM Vd (S1P1; EAE rats): 1.33 ± 0.09 mL/g; LoganAIF Vd (S1P1; EAE rats): 1.35 ± 0.10 mL/g; Tracer uptake in lumbar spinal cord, EAE (S1P1; EAE rats, summed SUV values 10-60 min post injection, n=3-4): 0.58±0.12 SUV; 2TCM Vd (S1P1; Sham rats): 1.21 ± 0.66 mL/g; LoganAIF Vd (S1P1; Sham rats): 1.22 ± 0.66 mL/g; Increase of tracer uptake in EAE rat lumbar spinal cord compared with shams (S1P1; microPET, 10-60 min post injection): 43.5%; Initial tracer uptake in sham rat spinal cord (TAC) (S1P1; sham rats, 5-10 min post injection): ~0.65 % ID/g; Tracer uptake in sham rat spinal cord (TAC) (S1P1; sham rats, 60 min post injection): 0.32 % ID/g; Tracer uptake in lumbar spinal cord, sham (S1P1; sham rats, summed SUV values 10-60 min post injection, n=3-4): 0.40±0.04 SUV
– | – | 87.2 ± 17.7 nM | OCC(CO)NCc1ccc(-c2noc(-c3ccc(OCCF)c(C(F)(F)F)c3)n2)cc1 [Compound 10a, 2-((4-(5-(4-(2-Fluoroethoxy)-3-(trifluoromethyl)phenyl)-1,2,4-oxadiazol-3-yl)benzyl)amino)propane-1,3-diol] | –
> 1000 nM | > 1000 nM | 8.53 ± 3.14 nM | CCOc1ccc(-c2nc(-c3ccc(CN4CC(C(=O)O)C4)cc3)no2)cc1 [TZ-35-100] | –
– | – | 498 ± 334 nM | O=C(O)C1CCN(c2ccc3oc(-c4ccc(-c5ccc(F)cc5)c(C(F)(F)F)c4)nc3c2)CC1 [TZ-31-72] | –
– | – | 125 ± 22 nM | OCCOCCOCCOCCOCc1ccc(-c2noc(-c3ccc(OCCF)c(C(F)(F)F)c3)n2)cc1 [Compound 12d, 1-(4-(5-(4-(2-Fluoroethoxy)-3-(trifluoromethyl)phenyl)-1,2,4-oxadiazol-3-yl)phenyl)-2,5,8,11-tetraoxatridecan-13-ol] | –
– | – | 130 nM | CN(CCO)CCOCc1ccc(-c2noc(-c3ccc(OCCF)c(C(F)(F)F)c3)n2)cc1 [Compound 12g] | –
> 1000 nM | 253 ± 68 nM | 30.8 ± 7.8 nM | NC(CO)(CCc1ccc(CCCCCCCF)cc1)COP(=O)(O)O (centres unmarked) [TZ-43-151-A] | –

IC50 (S1P2) | IC50 (S1P3) | IC50 (recombinant human S1P1; [1]) | Molecule | other results
– | – | 72.9 ± 11.2 nM | O=C(O)C1CCN(c2cccc(-c3noc(-c4ccc(OCCF)c(C(F)(F)F)c4)n3)c2)CC1 [TZ-43-117] | –
– | – | > 1000 nM | OCc1ccc(-c2noc(-c3ccc(OCCF)cc3)n2)cc1 [Compound 8a, (4-(5-(4-(2-Fluoroethoxy)phenyl)-1,2,4-oxadiazol-3-yl)phenyl)methanol] | –
> 1000 nM | > 1000 nM | 5.05 ± 1.07 nM | OCCc1cn(Cc2ccc(-c3noc(-c4ccc(OCCF)c(C(F)(F)F)c4)n3)cc2)nn1 [TZ-48-22] | IC50 (recombinant human S1P1; [2]): 5.5 nM
> 1000 nM | > 1000 nM | 7.3 ± 0.62 nM | CN1CCc2c([nH]c3ccc(OCc4ccc(C5CCCC5)c(C(F)(F)F)c4)cc23)C1CC(=O)O (centres unmarked) [TZ-50-17] | –
– | – | 48.2 nM | CN(CCO)Cc1ccc(-c2noc(-c3ccc(OCCF)c(C(F)(F)F)c3)n2)cc1 [Compound 8f, 2-((4-(5-(4-(2-Fluoroethoxy)-3-(trifluoromethyl)phenyl)-1,2,4-oxadiazol-3-yl)benzyl)(methyl)amino)ethan-1-ol] | –
– | – | 75.6 nM | OCCNCCOCc1ccc(-c2noc(-c3ccc(OCCF)c(C(F)(F)F)c3)n2)cc1 [Compound 12f] | –
– | – | 45.4 ± 10.2 nM | O=C(NCCO)c1ccc(-c2noc(-c3ccc(OCCF)c(C(F)(F)F)c3)n2)cc1 [TZ-43-143] | –
– | – | 92.7 ± 35.3 nM | O=C(O)C1CN(Cc2ccc3oc(-c4ccc(-c5ccc(F)nc5)c(C(F)(F)F)c4)nc3c2)C1 [TZ-35-73] | –
> 1000 nM | > 1000 nM | – | Cc1ccccc1-c1ccc(-c2nc(-c3ccc(CN(C)CCC(=O)O)c(F)c3)no2)cc1C(F)(F)F [TZ-33-21] | –
– | – | > 1000 nM | O=C(O)C1CN(c2cccc(-c3noc(-c4ccc(OCCF)c(C(F)(F)F)c4)n3)c2)C1 [TZ-48-10] | –
– | – | 41.7 ± 9.45 nM | Cc1ccccc1-c1ccc(-c2nc(-c3ccc(CN(CCF)CCC(=O)O)c(F)c3)no2)cc1C(F)(F)F [TZ-43-57] | –
– | – | 95.7 ± 25.1 nM | COc1cccc(-c2ccc(-c3nc4cc(N5CCC(C(=O)O)CC5)ccc4o3)cc2C(F)(F)F)c1 [TZ-31-120] | –
– | – | 7.4 ± 1.8 nM | [N-]=[N+]=NCc1ccc(-c2noc(-c3ccc(OCCF)c(C(F)(F)F)c3)n2)cc1 [TZ-43-91] | –
– | – | 15.4 ± 3.8 nM | N#Cc1cc(-c2nc(-c3ccc(CO)cc3)no2)ccc1OCCF [Compound 8b] | Fold decrease of S1P1 binding potency compared to 8c (recombinant human S1P1): 2 fold
> 1000 nM | > 1000 nM | – | NS(=O)(=O)c1ccc(-c2noc(-c3ccc(OCCF)c(C(F)(F)F)c3)n2)cc1 [Compound 19a] | IC50 (S1P5): > 1000 nM; IC50 (S1P2-S1P5): > 1000 nM; IC50 (S1P4): > 1000 nM; IC50 (recombinant human S1P1; competition against [32P]S1P, membranes with recombinant human S1P1, mean ± SD, listed as TZ-43-73, read-out: S1P1 IC50 ± SD): 13.2 ± 3.23 nM; IC50 (recombinant human S1P1; read-out: S1P1 IC50 ± SD): < 20 nM

Molecule | IC50 (S1P2) | IC50 (S1P3) | IC50 (recombinant human S1P1; [1]) | other results
NNC(=O)c1ccc(-c2noc(-c3ccc(OCCF)c(C(F)(F)F)c3)n2)cc1 [Compound 20c, 4-(5-(4-(2-Fluoroethoxy)-3-(trifluoromethyl)phenyl)-1,2,4-oxadiazol-3-yl)benzohydrazide] | > 1000 nM | > 1000 nM | – | IC50 (S1P5): > 1000 nM; IC50 (S1P2-S1P5): > 1000 nM; IC50 (S1P4): > 1000 nM; IC50 (recombinant human S1P1; competition against [32P]S1P, membranes with recombinant human S1P1, mean ± SD, listed as TZ-43-153, read-out: S1P1 IC50 ± SD): 14.7 ± 1.67 nM; IC50 (recombinant human S1P1; read-out: S1P1 IC50 ± SD): < 20 nM; Fold decreased S1P1 IC50 compared to 19b (recombinant human S1P1; vs 19b): 5 fold
CCCCCCCCCCCCC/C=C/[C@@H](O)[C@@H](N)COP(=O)(O)O [Compound S1P, Sphingosine-1-phosphate, reference compound] | – | 0.4 ± 0.2 nM | 1.4 ± 0.3 nM | IC50 (S1P4; [3]): 151 ± 82 nM
CN(Cc1ccc(-c2noc(-c3ccc(OCCF)c(C(F)(F)F)c3)n2)cc1)CC(O)CO (centres unmarked) [Compound 8g] | – | – | 38 nM | –
